Only the 19 paired bases of each siRNA are shown; overhangs and chemistry are not given here.
Biological target: LMNA
Test: five studies, different assays
Conditions: siRNA
Further: test concentration or dose not given here.

| Substance | target inhibition |
| --- | --- |
| sense GGAGGACCUGCAGGAGCUC / antisense GAGCUCCUGCAGGUCCUCC | 83% |
| sense GAGGUGGUCAGCCGCGAGG / antisense CCUCGCGGCUGACCACCUC | 80% |
| sense AAGAAGGAGCUGGAGAAGA / antisense UCUUCUCCAGCUCCUUCUU | 87% |
| sense CCCGCUCCUACCUCCUGGG / antisense CCCAGGAGGUAGGAGCGGG | 71% |
| sense UGCAGCAGCAGCUGGACGA / antisense UCGUCCAGCUGCUGCUGCA | 92% |
| sense GCUGGAGAAGACUUAUUCU / antisense AGAAUAAGUCUUCUCCAGC | 96% |
| sense GGCAUCUGCCAGCGGCUCA / antisense UGAGCCGCUGGCAGAUGCC | 92% |
| sense GCCUGCGUACGGCUCUCAU / antisense AUGAGAGCCGUACGCAGGC | 97% |
| sense GUUAUUUUCUACAGUGGUU / antisense AACCACUGUAGAAAAUAAC | 98% |
| sense AGAAGGAGCUGGAGAAGAC / antisense GUCUUCUCCAGCUCCUUCU | 96% |
| sense CUGGACUUCCAGAAGAACA / antisense UGUUCUUCUGGAAGUCCAG | 98% |
| sense GGAGCUGGAGAAGACUUAU / antisense AUAAGUCUUCUCCAGCUCC | 95% |
| sense GAGAAGACUUAUUCUGCCA / antisense UGGCAGAAUAAGUCUUCUC | 97% |
| sense GUAUAAGAAGGAGCUGGAG / antisense CUCCAGCUCCUUCUUAUAC | 96% |
| sense GGCACAGAACACCUGGGGC / antisense GCCCCAGGUGUUCUGUGCC | 86% |
| sense AAGGAGCUGGAGAAGACUU / antisense AAGUCUUCUCCAGCUCCUU | 91% |
| sense GCUGGCCCUGGACAUGGAG / antisense CUCCAUGUCCAGGGCCAGC | 79% |
| sense UGCCAGGCAGUCUGCUGAG / antisense CUCAGCAGACUGCCUGGCA | 81% |
| sense AGCGCAAACUGGAGUCCAC / antisense GUGGACUCCAGUUUGCGCU | 98% |
| sense GAGCUGGAGAAGACUUAUU / antisense AAUAAGUCUUCUCCAGCUC | 96% |

| Substance | target inhibition |
| --- | --- |
| sense CUGGAGAAGACUUAUUCUG / antisense CAGAAUAAGUCUUCUCCAG | 98% |
| sense AGGAGCUGGAGAAGACUUA / antisense UAAGUCUUCUCCAGCUCCU | 98% |
| sense GGAGAAGACUUAUUCUGCC / antisense GGCAGAAUAAGUCUUCUCC | 95% |
| sense AUAAGAAGGAGCUGGAGAA / antisense UUCUCCAGCUCCUUCUUAU | 96% |
| sense AGCAGUAUAAGAAGGAGCU / antisense AGCUCCUUCUUAUACUGCU | 84% |
| sense GCAGUAUAAGAAGGAGCUG / antisense CAGCUCCUUCUUAUACUGC | 82% |
| sense GGUGGUGACGAUCUGGGCU / antisense AGCCCAGAUCGUCACCACC | 92% |
| sense GCUUCGAGACCUGGAGGAC / antisense GUCCUCCAGGUCUCGAAGC | 96% |
| sense UAUAAGAAGGAGCUGGAGA / antisense UCUCCAGCUCCUUCUUAUA | 90% |
| sense UCUGGUCACCCGCUCCUAC / antisense GUAGGAGCGGGUGACCAGA | 83% |
| sense CUGCUCUCAGUGAGAAGCG / antisense CGCUUCUCACUGAGAGCAG | 88% |
| sense GAAGGAGCUGGAGAAGACU / antisense AGUCUUCUCCAGCUCCUUC | 93% |
| sense UAACCCUUUGGUUUUUUUC / antisense GAAAAAAACCAAAGGGUUA | 52% |
| sense AGCUGGAGAAGACUUAUUC / antisense GAAUAAGUCUUCUCCAGCU | 96% |
| sense UGGAGAAGACUUAUUCUGC / antisense GCAGAAUAAGUCUUCUCCA | 81% |
| sense GCUGGACAAUGCCAGGCAG / antisense CUGCCUGGCAUUGUCCAGC | 84% |
| sense GAAGUGGCCAUGCGCAAGC / antisense GCUUGCGCAUGGCCACUUC | 70% |
| sense GGACCUGCAGGAGCUCAAU / antisense AUUGAGCUCCUGCAGGUCC | 45% |
| sense UAAGAAGGAGCUGGAGAAG / antisense CUUCUCCAGCUCCUUCUUA | 67% |
| sense CAGUAUAAGAAGGAGCUGG / antisense CCAGCUCCUUCUUAUACUG | 95% |

Biological target: PPIB
Test: five studies, different assays
Conditions: siRNA

| Substance | target inhibition |
| --- | --- |
| sense GCACAGGAGGAAAGAGCAU / antisense AUGCUCUUUCCUCCUGUGC | 90.8% |
| sense GGGCGGAGACUUCACCAGG / antisense CCUGGUGAAGUCUCCGCCC | 89% |
| sense CUUCAAACUGAAGCACUAC / antisense GUAGUGCUUCAGUUUGAAG | 73.1% |
| sense ACAGCAAAUUCCAUCGUGU / antisense ACACGAUGGAAUUUGCUGU | 91.9% |
| sense AGGAGGAAAGAGCAUCUAC / antisense GUAGAUGCUCUUUCCUCCU | 58.9% |
| sense UCAUGAUCCAGGGCGGAGA / antisense UCUCCGCCCUGGAUCAUGA | 92.8% |
| sense GAGAGAAAGGAUUUGGCUA / antisense UAGCCAAAUCCUUUCUCUC | 93.4% |
| sense ACUUCACCAGGGGAGAUGG / antisense CCAUCUCCCCUGGUGAAGU | 41.9% |
| sense AGGAGAGAAAGGAUUUGGC / antisense GCCAAAUCCUUUCUCUCCU | 88.4% |
| sense AAAAACAGCAAAUUCCAUC / antisense GAUGGAAUUUGCUGUUUUU | 7.6% |
| sense CUACAGGAGAGAAAGGAUU / antisense AAUCCUUUCUCUCCUGUAG | 93.9% |
| sense AUCGUGUAAUCAAGGACUU / antisense AAGUCCUUGAUUACACGAU | 86.7% |
| sense CAAAUUCCAUCGUGUAAUC / antisense GAUUACACGAUGGAAUUUG | 92.3% |
| sense UUGGCUACAAAAACAGCAA / antisense UUGCUGUUUUUGUAGCCAA | 68% |
| sense AGCAAAUUCCAUCGUGUAA / antisense UUACACGAUGGAAUUUGCU | 86.4% |
| sense GUUCCAAAAACAGUGGAUA / antisense UAUCCACUGUUUUUGGAAC | 88.1% |
| sense CAAAAACAGUGGAUAAUUU / antisense AAAUUAUCCACUGUUUUUG | 90.2% |
| sense AAAACAGUGGAUAAUUUUG / antisense CAAAAUUAUCCACUGUUUU | 49.5% |
| sense CGUGUAAUCAAGGACUUCA / antisense UGAAGUCCUUGAUUACACG | 88.8% |
| sense CUUCAUGAUCCAGGGCGGA / antisense UCCGCCCUGGAUCAUGAAG | 88.7% |
| sense UCCAGGGCGGAGACUUCAC / antisense GUGAAGUCUCCGCCCUGGA | 41.8% |
| sense UACGGUGAGCGCUUCCCCG / antisense CGGGGAAGCGCUCACCGUA | -9.9% |
| sense ACAAAAACAGCAAAUUCCA / antisense UGGAAUUUGCUGUUUUUGU | 78.5% |
| sense AGACUUCACCAGGGGAGAU / antisense AUCUCCCCUGGUGAAGUCU | 87.6% |
| sense CCGAUGAGAACUUCAAACU / antisense AGUUUGAAGUUCUCAUCGG | 85.1% |

| Substance | target inhibition |
| --- | --- |
| sense AAUUUUGUGGCCUUAGCUA / antisense UAGCUAAGGCCACAAAAUU | 81.3% |
| sense GUGGAUAAUUUUGUGGCCU / antisense AGGCCACAAAAUUAUCCAC | 55% |
| sense GACUUCAUGAUCCAGGGCG / antisense CGCCCUGGAUCAUGAAGUC | 51.2% |
| sense AGGACUUCAUGAUCCAGGG / antisense CCCUGGAUCAUGAAGUCCU | 82.9% |
| sense UUCCCCGAUGAGAACUUCA / antisense UGAAGUUCUCAUCGGGGAA | 83.8% |
| sense CUACAAAAACAGCAAAUUC / antisense GAAUUUGCUGUUUUUGUAG | 71.2% |
| sense AGAACUUCAAACUGAAGCA / antisense UGCUUCAGUUUGAAGUUCU | 45.4% |
| sense AUAAUUUUGUGGCCUUAGC / antisense GCUAAGGCCACAAAAUUAU | 32.8% |
| sense GGCUACAAAAACAGCAAAU / antisense AUUUGCUGUUUUUGUAGCC | 77.4% |
| sense CAGUGGAUAAUUUUGUGGC / antisense GCCACAAAAUUAUCCACUG | 39.7% |
| sense GAUCCAGGGCGGAGACUUC / antisense GAAGUCUCCGCCCUGGAUC | 92.7% |
| sense UUCCAUCGUGUAAUCAAGG / antisense CCUUGAUUACACGAUGGAA | 45.9% |
| sense CAUCUACGGUGAGCGCUUC / antisense GAAGCGCUCACCGUAGAUG | 89% |
| sense GUGAGCGCUUCCCCGAUGA / antisense UCAUCGGGGAAGCGCUCAC | 83.9% |
| sense AACUUCAAACUGAAGCACU / antisense AGUGCUUCAGUUUGAAGUU | 69.2% |
| sense AGCUACAGGAGAGAAAGGA / antisense UCCUUUCUCUCCUGUAGCU | 75.8% |
| sense GGAAAGAGCAUCUACGGUG / antisense CACCGUAGAUGCUCUUUCC | 93.3% |
| sense GUGGCCUUAGCUACAGGAG / antisense CUCCUGUAGCUAAGGCCAC | 60.3% |
| sense GGCCUUAGCUACAGGAGAG / antisense CUCUCCUGUAGCUAAGGCC | 94.6% |
| sense GAAAGGAUUUGGCUACAAA / antisense UUUGUAGCCAAAUCCUUUC | 94.2% |
| sense UCCAAAAACAGUGGAUAAU / antisense AUUAUCCACUGUUUUUGGA | 75.3% |
| sense UCUACGGUGAGCGCUUCCC / antisense GGGAAGCGCUCACCGUAGA | 2.8% |
| sense CCUUAGCUACAGGAGAGAA / antisense UUCUCUCCUGUAGCUAAGG | 77.2% |
| sense UGAGAACUUCAAACUGAAG / antisense CUUCAGUUUGAAGUUCUCA | 41.7% |

From the OligoGym collection
